For orientation: IC50 means the midpoint of a concentration-inhibition curve.

Consider 33 molecules from patent US20250034108A1, “SODIUM CHANNEL BLOCKERS” (NOVARTIS AG, priority 2023, published 2025).

Where two headings read alike, the source gives them in different places.

The target of the data set is human Nav1.5 (Homo sapiens (Human), UniProt Q14524). The data set is described as follows: Qpatch automated patch-clamp, peak Nav1.5 current inhibition, 5-Hz AF-like assay (holding potential -85 mV). It is filed as cell-based. An excerpt: Electrophysiology was used to measure the ionic currents in isolated living cells using automated patch-clamp recording, performed using an automated patch-clamp machine called Qpatch (Sophion Bioscience). Two different assay conditions were used to identify compounds with atrial-selective potential. The 5-Hz AF-like assay has more depolarized holding potential at −85 mV to mimic atrial resting membrane potential (RMP) and was used to identify compounds of strong rate-dependence. Active, rate-dependent compounds were then screened at 1 Hz (i.e., sinus rate) at the holding potential of −100 mV to mimic the ventricular scenario and help identify compounds with the largest potency separation or attenuation from the 5-Hz AF-like assay. Such compounds have the potential for treating AF without the QRS liability inherent to Class Ic drugs.
The sodium current conducted through a cell (via Nav1.5) or electrical signals were processed through a low-pass filter at 5 KHz, re-digitalized and acquired at 20 kHz. Series resistance was not compensated and leak subtraction was performed.
1 to 3 million Chinese Hamster Ovary cells (also known as CHO-K1) stably expressing human Nav1.5 were seeded into […] culture flasks with 25 mL medium (consisting of Gibco Dulbecco's Modified Eagle Medium as a base medium with 1% MEM non-essential amino acids, 400 μg/mL Geneticin, 5 μg/mL puromycin and 10% fetal bovine serum) 48-72 hours prior to the experiments. On the day of the experiment, cells were washed once with phosphate-buffered saline (also known as PBS; Gibco) detached with Detachin™ (Genlantis), and re-suspended in CHO—S-SFM II media (Gibco) at 200,000 cells/mL. The CHO—S-SFM II was replaced with assay solutions prior to the assays. Whole-cell currents were recorded at room temperature in the whole-cell configuration. The external aqueous assay solution (pH=7.4; Osm=307-315) contained the following (the concentration for each component is expressed in parentheses in mM): NaCl (140 mM), KCl (4 mM), CaCl2) (2 mM), MgCl2 (1 mM), 4-(2-hydroxyethyl)-1-piperazineethanesulfonic acid, also known as HEPES (10 mM), and glucose (5 mM). The internal aqueous assay solution (pH=7.2; Osm=292-295) contained the following (the concentration for each component is expressed in parentheses in mM): CsF (110 mM), CsCl (10 mM), NaCl (10 mM), HEPES (10 mM), and ethylene glycolbis(β-aminoethyl ether)-N,N,N′,N′-tetraacetic acid, also known as EGTA (10 mM).
To assess peak Nav1.5 current inhibition in an atrial fibrillation-mimicking condition (Nav1.5 IC50 (5 Hz, AF-like rate) (μM)), compounds were first prepared at 10 mM in DMSO, and cells were pre-incubated with test compounds at each concentration for 3 min. in an ascending order of 0, 0.37, 1.1, 3.3, 10 and 30 μM. An atrial action potential-like protocol consisting of a voltage ramp (+10 mV to −85 mV for a 150 ms duration and a holding potential at −85 mV) was then applied to cells at 5 Hz for 12 s until no further current change or inhibition was observed. The percent inhibition (expressed as ([Iafter compound treatment/Ibefore compound treatment]×100%) is calculated by normalizing the peak current amplitude at the last pulse of each of the 6 compound concentrations by the amplitude before exposure to the test compound. The compiled data was further normalized by vehicle control (DMSO) to account for Nav1.5 current run-down, and IC50 was calculated by Matlab (MathWorks, USA).
(In patch-clamp work, channel activity is measured electrically.)

[1] abbreviates: CHO-K1 cells stably expressing human Nav1.5, Table 6, Examples 63-90, read-out: Nav1.5 IC50 (5 Hz, AF Rate).
Setting [2] is: CHO-K1 cells stably expressing human Nav1.5, holding potential -85 mV, Table 5, read-out: Nav1.5 IC50 (5 Hz, AF Rate).

Chain of human Nav1.5 (Q14524 whole entry): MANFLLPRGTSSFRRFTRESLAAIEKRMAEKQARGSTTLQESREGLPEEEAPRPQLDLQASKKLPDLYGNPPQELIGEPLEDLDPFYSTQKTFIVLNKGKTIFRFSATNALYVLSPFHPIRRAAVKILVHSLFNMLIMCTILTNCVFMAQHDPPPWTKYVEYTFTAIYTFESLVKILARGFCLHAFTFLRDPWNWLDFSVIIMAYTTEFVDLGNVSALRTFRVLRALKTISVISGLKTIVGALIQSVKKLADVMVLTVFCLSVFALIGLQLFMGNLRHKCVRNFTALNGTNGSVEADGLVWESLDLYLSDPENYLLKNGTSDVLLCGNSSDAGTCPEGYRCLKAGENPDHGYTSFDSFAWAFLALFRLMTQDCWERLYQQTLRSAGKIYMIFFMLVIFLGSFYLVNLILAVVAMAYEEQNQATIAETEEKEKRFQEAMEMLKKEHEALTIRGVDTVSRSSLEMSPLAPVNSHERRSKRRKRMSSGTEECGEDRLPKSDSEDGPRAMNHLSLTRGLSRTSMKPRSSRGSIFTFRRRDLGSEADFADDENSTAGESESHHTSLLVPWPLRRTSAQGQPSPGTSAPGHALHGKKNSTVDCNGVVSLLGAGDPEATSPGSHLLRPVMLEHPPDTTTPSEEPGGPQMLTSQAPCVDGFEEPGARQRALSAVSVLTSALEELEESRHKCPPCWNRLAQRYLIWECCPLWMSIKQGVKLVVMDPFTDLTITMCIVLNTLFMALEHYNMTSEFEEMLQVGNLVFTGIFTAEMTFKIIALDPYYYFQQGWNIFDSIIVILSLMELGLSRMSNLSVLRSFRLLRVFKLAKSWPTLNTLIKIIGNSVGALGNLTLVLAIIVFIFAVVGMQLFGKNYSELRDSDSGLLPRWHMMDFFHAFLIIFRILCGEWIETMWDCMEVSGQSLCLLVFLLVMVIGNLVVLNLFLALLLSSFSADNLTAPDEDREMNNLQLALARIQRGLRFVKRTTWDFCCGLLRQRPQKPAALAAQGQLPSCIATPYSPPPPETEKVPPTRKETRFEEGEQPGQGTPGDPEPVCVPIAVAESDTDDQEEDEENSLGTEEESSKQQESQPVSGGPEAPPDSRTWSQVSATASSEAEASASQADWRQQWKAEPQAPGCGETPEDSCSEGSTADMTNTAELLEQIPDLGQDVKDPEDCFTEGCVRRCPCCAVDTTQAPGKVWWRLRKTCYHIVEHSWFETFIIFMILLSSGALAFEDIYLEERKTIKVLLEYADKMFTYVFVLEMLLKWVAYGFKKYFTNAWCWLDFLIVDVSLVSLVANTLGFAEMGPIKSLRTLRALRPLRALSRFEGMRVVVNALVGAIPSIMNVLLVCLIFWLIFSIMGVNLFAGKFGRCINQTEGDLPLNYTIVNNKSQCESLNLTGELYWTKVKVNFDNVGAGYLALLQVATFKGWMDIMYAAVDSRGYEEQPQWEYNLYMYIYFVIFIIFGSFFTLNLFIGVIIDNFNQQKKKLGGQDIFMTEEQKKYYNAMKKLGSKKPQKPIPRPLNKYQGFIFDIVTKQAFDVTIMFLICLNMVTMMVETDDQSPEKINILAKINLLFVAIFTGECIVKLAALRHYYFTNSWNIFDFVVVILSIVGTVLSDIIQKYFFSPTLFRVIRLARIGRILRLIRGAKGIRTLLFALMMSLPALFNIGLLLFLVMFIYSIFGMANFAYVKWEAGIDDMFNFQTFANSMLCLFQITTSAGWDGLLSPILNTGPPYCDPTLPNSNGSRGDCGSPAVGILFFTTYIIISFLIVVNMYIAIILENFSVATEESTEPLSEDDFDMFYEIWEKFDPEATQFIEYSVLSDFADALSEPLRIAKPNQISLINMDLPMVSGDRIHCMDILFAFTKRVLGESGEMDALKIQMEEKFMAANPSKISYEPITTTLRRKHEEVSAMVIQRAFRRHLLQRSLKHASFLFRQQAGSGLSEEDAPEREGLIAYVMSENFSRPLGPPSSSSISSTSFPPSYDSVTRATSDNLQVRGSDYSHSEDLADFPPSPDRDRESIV

`C[C@](O)(CS(N)(=O)=O)c1cccc(-c2nnn(Cc3ccc(Br)cc3F)n2)n1` [Example 65]: the IC50 under setting [1] worked out at 17 µM.
As for `CC(O)(CS(N)(=O)=O)c1cccc(-c2nnn(Cc3cc(F)ccc3F)n2)n1` (single isomer, unassigned) [Example 17, (R or S)-2-(6-(2-(2,5-difluorobenzyl)-2H-tetrazol-5-yl)pyridin-2-yl)-2-hydroxypropane-1-sulfonamide], under setting [2], the IC50 is 24 µM.
Take `CC(O)(CS(N)(=O)=O)c1cccc(-c2nnn(Cc3cc(OC(F)(F)F)ccc3F)n2)n1` (racemic) [Rac-1 + 2, 2-(6-(2-(2-fluoro-5-(trifluoromethoxy)benzyl)-2H-tetrazol-5-yl)pyridin-2-yl)-2-hydroxypropane-1-sulfonamide]: under setting [2], the IC50 was 3.6 µM.
In the case of `C[C@](O)(CS(N)(=O)=O)c1cccc(-c2nnn(Cc3cc(F)ccc3Br)n2)n1` [Example 64], the IC50 under setting [1] was determined as 13 µM.
Consider `C[C@](O)(CS(N)(=O)=O)c1cccc(-c2nnn(Cc3cccc(OC(F)(F)F)c3F)n2)n1` [Example 75], for which the IC50 under setting [1] was found to be 4.8 µM.
For `CC(O)(CS(N)(=O)=O)c1cccc(-c2cnn(Cc3cc(OC(F)(F)F)ccc3F)n2)n1` (single isomer, unassigned) [Example 62, (R or S)-2-(6-(2-(2-fluoro-5-(trifluoromethoxy)benzyl)-2H-1,2,3-triazol-4-yl)pyridin-2-yl)-2-hydroxypropane-1-sulfonamide], the IC50 under setting [2] was 3.4 µM.
Consider `C[C@](O)(CS(N)(=O)=O)c1cccc(-c2nnn(Cc3cccc(Cl)c3Cl)n2)n1` [Example 70], for which the concentration for half-maximal inhibition (IC50) under setting [1] was 22 µM.
With `CC(O)(CS(N)(=O)=O)c1cccc(-c2nnn(Cc3cc(F)ccc3F)n2)n1` (single isomer, unassigned) [Example 18, (R or S)-2-(6-(2-(2,5-difluorobenzyl)-2H-tetrazol-5-yl)pyridin-2-yl)-2-hydroxypropane-1-sulfonamide], the concentration for half-maximal inhibition (IC50) under setting [2] was 20 µM.
Take `CC(O)(CS(N)(=O)=O)c1cccc(-c2nnn(Cc3cc(OC(F)(F)F)ccc3F)n2)c1` (single isomer, unassigned) [Example 25, (R or S)-2-(3-(2-(2-fluoro-5-(trifluoromethoxy)benzyl)-2H-tetrazol-5-yl)phenyl)-2-hydroxypropane-1-sulfonamide]: the half-inhibitory concentration (IC50) under setting [2] is 5.5 µM.
`C[C@](O)(CS(N)(=O)=O)c1cccc(-c2nnn(Cc3cc(Cl)ccc3C(F)(F)F)n2)n1` [Example 89]: under setting [1], the IC50 amounted to 27 µM.
On to `C[C@](O)(CS(N)(=O)=O)c1cccc(-c2nnn(Cc3c(F)ccc(Cl)c3F)n2)n1` [Example 73], for which the 50% inhibitory concentration (IC50) under setting [1] is 19 µM.
For the molecule `CC(C(O)c1cccc(-c2nnn(Cc3cc(OC(F)(F)F)ccc3F)n2)n1)S(N)(=O)=O` (single isomer, unassigned) [Example 49, (JR or 1S,2R or 2S)-1-(6-(2-(2-fluoro-5-(trifluoromethoxy)benzyl)-2H-tetrazol-5-yl)pyridin-2-yl)-1-hydroxypropane-2-sulfonamide], under setting [2], the IC50 was determined as 5.7 µM.
As to `CCC(O)(CS(N)(=O)=O)c1cccc(-c2ccn(Cc3cc(OC(F)(F)F)ccc3F)n2)n1` (racemic) [Example 35, 2-(6-(1-(2-fluoro-5-(trifluoromethoxy)benzyl)-1H-pyrazol-3-yl)pyridin-2-yl)-2-hydroxybutane-1-sulfonamide], the half-inhibitory concentration (IC50) under setting [2] turned out to be 4 µM.
With `C[C@](O)(CS(N)(=O)=O)c1cccc(-c2nnn(Cc3cc(C(F)(F)F)cc(C(F)(F)F)c3)n2)n1` [Example 83], under setting [1], the half-maximal inhibitory concentration (IC50) stood at 18 µM.
For `Cc1ccc(F)c(Cn2nnc(-c3cccc([C@@](C)(O)CS(N)(=O)=O)n3)n2)c1Cl` [Example 63], the IC50 under setting [1] came to 3.8 µM.
As for `C[C@](O)(CS(N)(=O)=O)c1cccc(-c2nnn(Cc3c(Cl)cccc3Cl)n2)n1` [Example 85], the half-inhibitory concentration (IC50) under setting [1] came out at 5.2 µM.
On the same count and under the same terms, the value for `Cc1cc(C)c(C)c(Cn2nnc(-c3cccc([C@@](C)(O)CS(N)(=O)=O)n3)n2)c1` [Example 68] was 16 µM; that for `C[C@](O)(CS(N)(=O)=O)c1cccc(-c2nnn(Cc3cccc(OC(F)(F)F)c3)n2)n1` [Example 82] was 7.3 µM.
On the same count and under the same terms, the value for `C[C@](O)(CS(N)(=O)=O)c1cccc(-c2nnn(Cc3cc(OC(F)F)ccc3F)n2)n1` [Example 84] was 14 µM; that for `Cc1cccc(Cn2nnc(-c3cccc([C@@](C)(O)CS(N)(=O)=O)n3)n2)c1C` [Example 69] was 11 µM.
As for `CC(O)(CS(N)(=O)=O)c1cccc(-c2nnn(Cc3c(F)ccc4c3OC(F)(F)O4)n2)n1` (racemic) [Rac-3 + 4, 2-hydroxy-2-(6-(2-((2,2,5-trifluorobenzo[d][1,3]dioxol-4-yl)methyl)-2H-tetrazol-5-yl)pyridin-2-yl)propane-1-sulfonamide], under setting [2], the 50% inhibitory concentration (IC50) was determined as 7 µM.
The same measure, in the same setting: the value for `CC(O)(CS(N)(=O)=O)c1cccc(-c2nnn(Cc3cc(OCC(F)(F)F)ccc3F)n2)n1` (single isomer, unassigned) [Example 29, (R or S)-2-(6-(2-(2-fluoro-5-(2,2,2-trifluoroethoxy)benzyl)-2H-tetrazol-5-yl)pyridin-2-yl)-2-hydroxypropane-1-sulfonamide] was 0.8 µM.
As for `CC(O)(CS(N)(=O)=O)c1nc(-c2nnn(Cc3cc(OC(F)(F)F)ccc3F)n2)ccc1Cl` (single isomer, unassigned) [Example 43, (R or S)-2-(3-chloro-6-(2-(2-fluoro-5-(trifluoromethoxy)benzyl)-2H-tetrazol-5-yl)pyridin-2-yl)-2-hydroxypropane-1-sulfonamide], the IC50 under setting [2] stood at 8.2 µM.
In the case of `C[C@](O)(CS(N)(=O)=O)c1cccc(-c2nnn(Cc3c(F)cccc3Br)n2)n1` [Example 67], the IC50 under setting [1] was found to be 8.1 µM.
On to “3-(6-(1-(2-fluoro-5-(trifluoromethoxy)benzyl)-1H-pyrazol-3-yl)pyridin-2-yl)-3-hydroxy-2-methylbutane-2-sulfonamide [Example 54]”, for which the 50% inhibitory concentration (IC50) under setting [2] was determined as 4.2 µM.
For the molecule `C[C@](O)(CS(N)(=O)=O)c1cccc(-c2nnn(Cc3cc(Cl)ccc3Cl)n2)n1` [Example 78], under setting [1], the IC50 is 10 µM.
Still for that read-out and setting: then `C[C@](O)(CS(N)(=O)=O)c1cccc(-c2nnn(Cc3cc(Cl)cc(Cl)c3Cl)n2)n1` [Example 90], with 8.9 µM.
Take `CC(C)(C(O)c1cccc(-c2ccn(Cc3cc(OC(F)(F)F)ccc3F)n2)n1)S(N)(=O)=O` (racemic) [Example 53, 1-(6-(1-(2-fluoro-5-(trifluoromethoxy)benzyl)-1H-pyrazol-3-yl)pyridin-2-yl)-1-hydroxy-2-methylpropane-2-sulfonamide]: the IC50 under setting [2] was 12 µM.
On the same count and under the same terms, then `NS(=O)(=O)CC(O)c1cccc(-c2nnn(Cc3cc(OC(F)(F)F)ccc3F)n2)n1` (racemic) [Example 48, 2-(6-(2-(2-fluoro-5-(trifluoromethoxy)benzyl)-2H-tetrazol-5-yl)pyridin-2-yl)-2-hydroxyethane-1-sulfonamide], with 5.5 µM.
With `C[C@](O)(CS(N)(=O)=O)c1cccc(-c2nnn(Cc3cc(Cl)cc(OC(F)(F)F)c3)n2)n1` [Example 88], the IC50 under setting [1] came out at 28 µM.
Still for that read-out and setting: the value for `C[C@](O)(CS(N)(=O)=O)c1cccc(-c2nnn(Cc3cc(Cl)c(F)cc3F)n2)n1` [Example 81] was 21 µM; that for `C[C@](O)(CS(N)(=O)=O)c1cccc(-c2nnn(Cc3ccc(Cl)c(C(F)(F)F)c3)n2)n1` [Example 80] was 14 µM.
`C[C@](O)(CS(N)(=O)=O)c1cccc(-c2nnn(Cc3cc(OC(F)(F)F)ccc3Br)n2)n1` [Example 86]: the concentration for half-maximal inhibition (IC50) under setting [1] was 6.3 µM.
